In the first assay the test system is Botrytis cinerea. Description: Botrytis test (bean)/protective. It counts as in vivo. The conditions noted are these: 48 h, protective, application rate 100 g/ha, evaluation 2 days after inoculation, read-out: Efficacy in %. Here is the method: To produce a suitable preparation of active compound, 1 part by weight of active compound is mixed with the stated amounts of solvents and emulsifier, and the concentrate is diluted with water to the desired concentration. To test for protective activity, young plants are sprayed with the preparation of active compound at the stated application rate. After the spray coating has dried on, 2 small pieces of agar colonized with Botrytis cinerea are placed onto each leaf. The inoculated plants are placed in a darkened chamber at about 20° C. and 100% relative atmospheric humidity. 2 days after the inoculation, the size of the infected areas on the leaves is evaluated. 0% means an efficacy which corresponds to that of the control, whereas an efficacy of 100% means that no infection is observed.
`Cn1cc(C(=O)Nc2ccc(F)cc2-c2ccc(Cl)c(Cl)c2)c(I)n1` [drawing 88]: the pest or weed control at 100 g/ha stood at 100%.

Regarding `Cn1cc(C(=O)Nc2ccccc2-c2ccc(Cl)cc2)c(I)n1` [drawing 96], the pest or weed control at 100 g/ha turned out to be 100%.

As to `Cn1cc(C(=O)Nc2ccccc2-c2ccc(I)cc2)c(I)n1` [drawing 97], the pest or weed control at 100 g/ha worked out at 100%.

Consider `CC(C)CCc1ccccc1NC(=O)c1cn(C)nc1I` [drawing 98], for which the pest or weed control at 100 g/ha was 98%.

`CC1CC(C)(C)c2cccc(NC(=O)c3cn(C)nc3I)c21` (centres unmarked) [drawing 99]: the pest or weed control at 100 g/ha came to 100%.

As to `CC(C)CC(C)c1cc(F)ccc1NC(=O)c1cn(C)nc1I` (centres unmarked) [drawing 100], the pest or weed control at 100 g/ha is 100%.

The assay is the same for the next values; noted with them: 48 h, protective, application rate 500 g/ha, evaluation 2 days after inoculation, read-out: Efficacy in %.
For `CC(CC(C)(C)C)c1ccccc1NC(=O)c1cn(C)nc1I` (centres unmarked) [drawing 85], the pest or weed control at 500 g/ha came to 100%.

Consider `CC(C)CC(C)c1ccccc1NC(=O)c1cn(C)nc1I` (centres unmarked) [drawing 86], for which the pest or weed control at 500 g/ha amounted to 100%.

Regarding `Cn1cc(C(=O)Nc2ccccc2-c2ccc(Cl)c(Cl)c2)c(I)n1` [drawing 87], the pest or weed control at 500 g/ha amounted to 100%.

For the compound `Cn1cc(C(=O)Nc2ccccc2-c2ccc(F)c(Cl)c2)c(I)n1` [drawing 89], the pest or weed control at 500 g/ha worked out at 100%.

As to `Cn1cc(C(=O)Nc2ccccc2-c2ccc(Br)cc2)c(I)n1` [drawing 90], the pest or weed control at 500 g/ha stood at 100%.

For `Cn1cc(C(=O)Nc2ccccc2-c2ccc(Cl)c(F)c2)c(I)n1` [drawing 91], the pest or weed control at 500 g/ha was 100%.

Consider `CCCO/N=C/c1ccc(-c2ccccc2NC(=O)c2cn(C)nc2I)cc1F` [drawing 92], for which the pest or weed control at 500 g/ha is 100%.

For the compound `Cc1ccc(-c2ccccc2NC(=O)c2cn(C)nc2I)cc1F` [drawing 93], the pest or weed control at 500 g/ha was 100%.

Turning to `Cn1cc(C(=O)Nc2ccccc2-c2ccc(C(F)(F)F)cc2)c(I)n1` [drawing 94], the pest or weed control at 500 g/ha came out at 94%.

For `Cn1cc(C(=O)Nc2ccccc2-c2ccc(C(F)(F)F)c(F)c2)c(I)n1` [drawing 95], the pest or weed control at 500 g/ha stood at 100%.

Another assay concerns Alternaria solani. As to the kind of experiment: Alternaria test (tomato)/protective. It counts as in vivo. Conditions: protective, application rate 750 g/ha, evaluation 7 days after inoculation. As to the method: To produce a suitable preparation of active compound, 1 part by weight of active compound is mixed with the stated amounts of solvent and emulsifier, and the concentrate is diluted with water to the desired concentration. To test for protective activity, young tomato plants are sprayed with the preparation of active compound at the stated application rate. 1 day after the treatment, the plants are inoculated with a spore suspension of Alternaria solani and are then allowed to stand at 100% relative atmospheric humidity and 20° C. for 24 h. The plants are then allowed to stand at 96% relative atmospheric humidity and a temperature of 20° C. The evaluation is carried out 7 days after the inoculation. 0% means an efficacy which corresponds to that of the control, whereas an efficacy of 100% means that no infection is observed.
The compound `Cn1cc(C(=O)Nc2ccccc2-c2ccc(I)cc2)c(I)n1` [drawing 125] registered an Efficacy in % of 100%.

As for `Cn1cc(C(=O)Nc2ccc(F)cc2-c2ccc(Cl)c(Cl)c2)c(I)n1` [drawing 126], the Efficacy in % came out at 100%.

`Cn1cc(C(=O)Nc2ccccc2-c2ccc(F)c(Cl)c2)c(I)n1` [drawing 127] returned an Efficacy in % of 100%.

In a further assay the test system is Pyrenophora teres. As to the kind of experiment: Pyrenophora teres test (barley)/protective. The conditions noted are these: 192 h, protective, application rate 500 g/ha, evaluation 8 days after inoculation, read-out: Efficacy in %. It counts as in vivo. Here is the method: (§1) To produce a suitable preparation of active compound, 1 part by weight of active compound is mixed with the stated amounts of solvent and emulsifier, and the concentrate is diluted with water to the desired concentration. To test for protective activity, young plants are sprayed with the preparation of active compound at the stated application rate. After the spray coating has dried on, the plants are sprayed with a conidia suspension of Pyrenophora teres. The plants remain in an incubation cabin at 20° C. and 100% relative atmospheric humidity for 48 hours. The plants are then placed in a greenhouse at a temperature of about 20° C. and a relative atmospheric humidity of about 80%. Evaluation is carried out 8 days after the inoculation. 0% means an efficacy which corresponds to that of the control, whereas an efficacy of 100% means that no infection is observed.
In the case of `CC(CC(C)(C)C)c1ccccc1NC(=O)c1cn(C)nc1I` (centres unmarked) [drawing 101], the pest or weed control at 500 g/ha came to 93%.

Regarding `CC(C)CC(C)c1ccccc1NC(=O)c1cn(C)nc1I` (centres unmarked) [drawing 102], the pest or weed control at 500 g/ha was determined as 100%.

Consider `Cn1cc(C(=O)Nc2ccccc2-c2ccc(Cl)c(F)c2)c(I)n1` [drawing 103], for which the pest or weed control at 500 g/ha was determined as 100%.

`Cn1cc(C(=O)Nc2ccccc2-c2ccc(I)cc2)c(I)n1` [drawing 104]: the pest or weed control at 500 g/ha came out at 100%.

As for `Cn1cc(C(=O)Nc2ccccc2-c2ccc(Cl)cc2)c(I)n1` [drawing 105], the pest or weed control at 500 g/ha was 100%.

As for `Cn1cc(C(=O)Nc2ccccc2-c2ccc(F)c(Cl)c2)c(I)n1` [drawing 106], the pest or weed control at 500 g/ha amounted to 100%.

Regarding `Cn1cc(C(=O)Nc2ccccc2-c2ccc(Br)cc2)c(I)n1` [drawing 107], the pest or weed control at 500 g/ha stood at 100%.

In the case of `Cn1cc(C(=O)Nc2ccccc2-c2ccc(C(F)(F)F)c(F)c2)c(I)n1` [drawing 108], the pest or weed control at 500 g/ha was 100%.

Regarding `CC(=O)N(C(=O)c1cn(C)nc1I)c1ccccc1C(C)CC(C)C` (centres unmarked) [drawing 109], the pest or weed control at 500 g/ha was 100%.

Take `CC(C)CC(C)c1cc(F)ccc1NC(=O)c1cn(C)nc1I` (centres unmarked) [drawing 110]: the pest or weed control at 500 g/ha is 100%.

In another assay the test system is Venturia inaequalis. Description: Venturia test (apple)/protective. The assay is classed as in vivo. The conditions noted are these: 240 h, protective, application rate 100 g/ha, evaluation 10 days after inoculation, read-out: Efficacy in %. Here is the method:
To produce a suitable preparation of active compound, 1 part by weight of active compound is mixed with the stated amounts of solvents and emulsifier, and the concentrate is diluted with water to the desired concentration. To test for protective activity, young plants are sprayed with the preparation of active compound at the stated application rate. After the spray coating has dried on, the plants are inoculated with an aqueous conidia suspension of the apple pathogen Venturia inaequalis and then remain in an incubation cabin at about 20° C. and 100% relative atmospheric humidity for 1 day. The plants are then placed in a greenhouse at about 21° C. and a relative atmospheric humidity of about 90%. Evaluation is carried out 10 days after the inoculation. 0% means an efficacy which corresponds to that of the control, whereas an efficacy of 100% means that no infection is observed.
`CC(C)CC(C)c1cc(F)ccc1NC(=O)c1cn(C)nc1I` (centres unmarked) [drawing 84]: the pest or weed control at 100 g/ha stood at 100%.

Another assay concerns Puccinia recondita. Description: Puccinia test (wheat)/protective. It counts as in vivo. Conditions: 240 h, protective, application rate 500 g/ha, evaluation 10 days after inoculation, read-out: Efficacy in %. Here is the method: as §1, with “of Puccinia recondita.” for “of Pyrenophora teres.”, “of 80% to promote the development of rust pustules.” for “of about 80%.”, “out 10” for “out 8”
Regarding `CC(CC(C)(C)C)c1ccccc1NC(=O)c1cn(C)nc1I` (centres unmarked) [drawing 111], the pest or weed control at 500 g/ha turned out to be 100%.

For `CC(C)CC(C)c1ccccc1NC(=O)c1cn(C)nc1I` (centres unmarked) [drawing 112], the pest or weed control at 500 g/ha is 100%.

On to `Cn1cc(C(=O)Nc2ccccc2-c2ccc(Cl)c(F)c2)c(I)n1` [drawing 113], for which the pest or weed control at 500 g/ha amounted to 100%.

For `Cn1cc(C(=O)Nc2ccccc2-c2ccc(I)cc2)c(I)n1` [drawing 114], the pest or weed control at 500 g/ha stood at 100%.

With `Cn1cc(C(=O)Nc2ccccc2-c2ccc(Cl)c(Cl)c2)c(I)n1` [drawing 115], the pest or weed control at 500 g/ha came out at 100%.

`Cn1cc(C(=O)Nc2ccccc2-c2ccc(Cl)cc2)c(I)n1` [drawing 116]: the pest or weed control at 500 g/ha was 100%.

On to `Cn1cc(C(=O)Nc2ccccc2-c2ccc(F)c(Cl)c2)c(I)n1` [drawing 117], for which the pest or weed control at 500 g/ha stood at 100%.

For `Cn1cc(C(=O)Nc2ccccc2-c2ccc(Br)cc2)c(I)n1` [drawing 118], the pest or weed control at 500 g/ha was determined as 100%.

Take `Cn1cc(C(=O)Nc2ccccc2-c2ccc(C(F)(F)F)c(F)c2)c(I)n1` [drawing 119]: the pest or weed control at 500 g/ha was determined as 100%.

Turning to `CC(=O)N(C(=O)c1cn(C)nc1I)c1ccccc1C(C)CC(C)C` (centres unmarked) [drawing 120], the pest or weed control at 500 g/ha was found to be 100%.

Regarding `CC(C)CC(C)c1cc(F)ccc1NC(=O)c1cn(C)nc1I` (centres unmarked) [drawing 121], the pest or weed control at 500 g/ha was found to be 100%.

For the compound `CC(C)CCc1ccccc1NC(=O)c1cn(C)nc1I` [drawing 122], the pest or weed control at 500 g/ha is 100%.

With `CC1CC(C)(C)c2cccc(NC(=O)c3cn(C)nc3I)c21` (centres unmarked) [drawing 123], the pest or weed control at 500 g/ha was 100%.

In the case of `C=C(CC(C)(C)C)c1ccccc1NC(=O)c1cn(C)nc1I` [drawing 124], the pest or weed control at 500 g/ha was 100%.

The values are drawn from patent US7906656B2, “Iodopyrazolyl carboxanilides” (Bayer CropScience AG, priority 2003, dated 2011).
